Like-named read-outs stand apart in the source and are kept apart here.
Assays:
[1] = cited from earlier work
[2] = Corrosion test NACE TM0169-95 modified by PNS, steel coupons in 3% NaCl solution; parameters: Percent Effectiveness: scale not given: direction of the effect not stated beside the values; settings: Table 1; for Corrosion rate MPY: 72 h; for Percent Effectiveness: NaCl control 100%, water 0%, lower is better, 30% or less acceptable (PNS); for Corrected corrosion rate MPY^1: distilled water MPY subtracted
Description: Corrosion tests were performed according to the National Association of Corrosion Engineers (NACE) Standard TM0169-95 modified by the Pacific Northwest Snowfighters (PNS) (NACE TM0169-95).
The test procedure was modified to use 30 mL of a 3% solution of inhibitor per square inch of total coupon surface area. Stamped and numbered steel TSI coupons which met the ASTM F436 Type 1 requirement with a Rockwell hardness of C 38-45 were used for each corrosion test. Approximate coupon dimensions are 1.37 in. outer diameter, 0.60 in. inner diameter, and 0.10 in. thickness with a density of 7.85 grams per cubic centimeter. Coupons were placed in a sealed container on a rock tumbler with a non-abrasive cleanser for 30 minutes to remove surface grease and impurities. Coupons were wiped with acetone to remove any additional grease, rinsed with deionized water, and then acid etched with an 18.5% HCl solution for approximately 3 minutes. The coupons were rinsed with tap water, rinsed with deionized water, patted dry and placed in chloroform for 15 minutes. The coupons were removed from chloroform and allowed to air dry in a ventilated hood for 1 hour. Each coupon was then weighed to the nearest 0.1 mg. at least two times to ensure a consistent weight.
Distilled water was used to prepare each solution and control standard. Sodium chloride was used as the salt standard. A 3% solution of NaCl (EMD, analyzed reagent grade, 9.6 g) in distilled water (310.4 g) was prepared as a salt standard (w/v). Each test solution was prepared with 3% NaCl, 310.4 g distilled water, and a corrosion inhibitor. Two NaCl salt solutions containing each inhibitor were prepared at 3% and 1.5% inhibitor concentration (by weight of salt, 288 mg and 144 mg, respectively). Approximately 300 mL of each solution in distilled water was transferred to a clean 500 mL Erlenmeyer flask equipped with a rubber stopper which had been drilled to allow a thin line attached to a plastic rod to run through it. The pH of each solution was measured and recorded. Aqueous 5% sodium hydroxide was carefully added (1-2 drops) until a basic pH was established for each test solution. The pH of the NaCl and H2O control solutions was not altered. Three coupons were attached to a plastic bar suspended within each flask through the stopper hole. A timed device raised and lowered the test coupons so they were immersed in the test solution for 10 minutes of each hour for a 72 hour period. Tests were conducted at room temperature.
After the 72 h. test period, the coupons were quickly removed from solution, rinsed under tap water and vigorously rubbed to remove any surface corrosion material. The coupons were then placed in shallow evaporating dishes containing a cleaning solution of concentrated hydrochloric acid, stannous chloride (50 g/liter), and antimony chloride (20 g/liter) for 15 minutes. The coupons were removed from the acid solution, rinsed vigorously under tap water, and returned to the cleaning solution for an additional 15 minutes. The coupons were again removed from the acid solution, rinsed under tap water, rinsed under deionized water, patted dry, and placed in a vessel containing chloroform for 10 minutes. The coupons were removed from the chloroform and allowed to air dry under a ventilated hood for 1 hour before being weighed to the nearest 0.1 mg. Each coupon was weighed twice to ensure a true final weight. Corrosion rate in mils per year (MPY) was calculated from the measured weight loss of each coupon using the following equation: […]
The corrosion value for the control solution of distilled H2O was also calculated. The MPY value of the distilled water was subtracted from the MPY value of each sample solution containing 3% NaCl to provide a corrected MPY value, which is noted as MPY′.

[3] = Water solubility; assay type: physicochemical; settings: at the higher pH
[4] = 1.5 weight % inhibitor in 3% NaCl, room temperature, >pH 8 except sodium D-gluconate (pH 6.1)
[5] = 1.5 weight % inhibitor in 3% NaCl
[6] = 3.0 weight % inhibitor in 3% NaCl, >pH 8 except sodium D-gluconate (pH 6.1) and commercial liquid gluconate product (pH 3.2)
[7] = 3.0 weight % inhibitor in 3% NaCl

SMILES | water solubility (in words) [1] | Corrosion rate MPY [2, 4] | Percent Effectiveness [2, 5] | Corrected corrosion rate MPY^1 [2, 5] | Corrosion rate MPY [2, 6] | Percent Effectiveness [2, 7] | Corrected corrosion rate MPY^1 [2, 7] | water solubility [3] | also measured
O=C(O)[C@@H](O)[C@@H](O)[C@H](O)[C@@H](O)C(=O)[O-].[K+] [Sample III, monopotassium D-glucarate] | – | – | – | – | – | – | – | – | Water reduction (% of control) (Type A (water reducing) trial, admixture dose 2.4-2.5 oz/cwt): 5.04 % of control; Compressive Strength (% of control) (Type A trial, 7 days): (125%) % of control; Water reduction (% of control) (Type D (water reducing/set retarding) trial, admixture dose 2.9-5.0 oz/cwt): 5.04 % of control; Compressive Strength (% of control) (Type D trial, 7 days): (117%) % of control; Compressive Strength (% of control) (Type D trial, 28 days): (118%) % of control; water solubility [1]: about 10%
O=C([O-])[C@@H](O)[C@@H](O)[C@H](O)[C@@H](O)C(=O)[O-].[Ca+2] [calcium D-glucarate] | very insoluble in water | – | – | – | – | – | – | – | –
O=C([O-])[C@@H](O)[C@@H](O)[C@H](O)[C@@H](O)C(=O)[O-].[K+].[K+] [dipotassium D-glucarate hydrate, dipotassium D-glucarate] | readily soluble in water | – | – | – | – | – | – | – | –
O=C([O-])[C@H](O)[C@@H](O)[C@H](O)[C@H](O)CO.[Na+] [sodium D-gluconate, reference compound] | – | 24.596 MPY | 36.98% | 20.313 MPY | 22.786 MPY | 33.45% | 18.503 MPY | ca. 60% | Percent Effectiveness ([2]; 3.0 weight % inhibitor in 3% NaCl, listed as gluconate): > 30%
O=C([O-])[C@@H](O)[C@@H](O)[C@H](O)[C@@H](O)C(=O)[O-].[K+].[Na+] [sodium potassium D-glucarate] | readily soluble in water | 23.726 MPY | 35.28% | 19.443 MPY | 20.939 MPY | 29.84% | 16.656 MPY | ca. 70% | Percent Effectiveness ([2]; 3.0 weight % inhibitor in 3% NaCl, listed as glucarate): ~30%

From patent US20120035356A1, “Hydroxycarboxylic Acids and Salts” (priority 2006, published 2012)
